From ChEMBL document CHEMBL1201862, “PubChem BioAssay data set” (2004)
The source made the active and inactive calls.

Legend:
[1] = biological target: T1, E3 ubiquitin-protein ligase XIAP (Homo sapiens, UniProt P98170); test: small molecules displacing peptide from XIAP – biochemical, IAP family, fluorescence polarization (AID 1018); format: functional
[2] = biological target: T1, E3 ubiquitin-protein ligase XIAP; test: Counter Screen using XIAP-Bir3 for Chemical Antagonists of Bir1/2 domains of IAP-family anti-apoptotic proteins. [Related pubchem assays (depositor defined):AID1018, AID1449, AID1514, AID1638, AID1749, AID1750, AID488957, AID488963]
Vero [3] = test: cells; format: functional; conditions: Chlorocebus sabaeus
HEK293 [4] = test: cells; format: functional, cell-based; conditions: Homo sapiens
HEK293 [5] = test: inhibition of NOD1-driven NF-kB reporter – cell-based, luminescence, uHTS, primary screen (AID 1578); format: functional; conditions: Homo sapiens
Vero [6] = test: cells; format: functional, cell-based; conditions: Chlorocebus sabaeus
[7] = NIH3T3 cell viability loss – ATP luminescence, mouse fibroblasts, counter-screen, dose response (AID 2010); format: functional, cell-based;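 also: cells exposed to compound for about 90 hours before reading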
HEK293 [8] = test: cells; format: functional, cell-based; conditions: Homo sapiens; remark: listed apart in the source
[9] = Trypanosoma cruzi growth suppression in host cells – NIH3T3 host cells, beta-gal luminescence, confirmation (AID 2044); format: functional, cell-based;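 also: intracellular parasites grown in NIH/3T3 mouse fibroblasts as host cells; luminescent beta-galactosidase reporter signal from transgenic T. cruzi replicating inside host cells; inhibitors lower the luminescence signal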
HEK293 [10] = test: NOD2 signaling inhibitors in MDP-stimulated cells, cell-based, uHTS, luminescence (AID 2001); format: functional; conditions: Homo sapiens
Paired box protein Pax-8 = Paired box protein Pax-8 (Homo sapiens, UniProt Q06710); test: PAX8 transcriptional activity inhibition in RMG-I – RMG-I cells, luciferase, cherry-pick, dose response (AID 687027); format: functional, cell-based;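 also: luciferase reporter driven by Pax8 target thyroperoxidase promoter measured by SteadyGlo luminescence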
Chain of Paired box protein Pax-8 (Q06710 whole entry): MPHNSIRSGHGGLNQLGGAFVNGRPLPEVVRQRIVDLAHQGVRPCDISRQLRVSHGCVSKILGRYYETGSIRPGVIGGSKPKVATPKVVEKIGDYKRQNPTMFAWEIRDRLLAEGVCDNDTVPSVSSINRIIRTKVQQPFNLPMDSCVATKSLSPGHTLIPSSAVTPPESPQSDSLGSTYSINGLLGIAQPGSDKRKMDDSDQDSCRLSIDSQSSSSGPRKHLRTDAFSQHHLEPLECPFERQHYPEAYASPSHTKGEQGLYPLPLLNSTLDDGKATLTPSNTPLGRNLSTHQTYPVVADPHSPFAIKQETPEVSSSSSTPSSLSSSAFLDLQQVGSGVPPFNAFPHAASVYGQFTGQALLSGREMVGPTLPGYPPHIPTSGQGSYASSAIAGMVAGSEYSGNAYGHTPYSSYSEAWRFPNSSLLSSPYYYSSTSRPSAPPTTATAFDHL

HEK293 [11] = test: cells; format: functional, cell-based; conditions: Homo sapiens; remark: listed apart in the source
INS1 = test: INS-1E survival protection against cytokine death – cell-based, luminescence, retest, dose response (AID 449756); format: functional; conditions: Rattus norvegicus;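 also: cell death triggered by IL-1 beta plus TNF-alpha plus IFN-gamma mixture; protective hits raise ATP signal compared with cytokine alone wells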
[12] = biological target: Nucleotide-binding oligomerization domain-containing protein 2 (Homo sapiens, UniProt Q9HC29); test: inhibition of NOD2-driven NF-kB reporter – cell-based, luminescence, uHTS, HEK293 (AID 1566); format: functional
Chain of Nucleotide-binding oligomerization domain-containing protein 2 (Q9HC29 whole entry, the tested form may be a part): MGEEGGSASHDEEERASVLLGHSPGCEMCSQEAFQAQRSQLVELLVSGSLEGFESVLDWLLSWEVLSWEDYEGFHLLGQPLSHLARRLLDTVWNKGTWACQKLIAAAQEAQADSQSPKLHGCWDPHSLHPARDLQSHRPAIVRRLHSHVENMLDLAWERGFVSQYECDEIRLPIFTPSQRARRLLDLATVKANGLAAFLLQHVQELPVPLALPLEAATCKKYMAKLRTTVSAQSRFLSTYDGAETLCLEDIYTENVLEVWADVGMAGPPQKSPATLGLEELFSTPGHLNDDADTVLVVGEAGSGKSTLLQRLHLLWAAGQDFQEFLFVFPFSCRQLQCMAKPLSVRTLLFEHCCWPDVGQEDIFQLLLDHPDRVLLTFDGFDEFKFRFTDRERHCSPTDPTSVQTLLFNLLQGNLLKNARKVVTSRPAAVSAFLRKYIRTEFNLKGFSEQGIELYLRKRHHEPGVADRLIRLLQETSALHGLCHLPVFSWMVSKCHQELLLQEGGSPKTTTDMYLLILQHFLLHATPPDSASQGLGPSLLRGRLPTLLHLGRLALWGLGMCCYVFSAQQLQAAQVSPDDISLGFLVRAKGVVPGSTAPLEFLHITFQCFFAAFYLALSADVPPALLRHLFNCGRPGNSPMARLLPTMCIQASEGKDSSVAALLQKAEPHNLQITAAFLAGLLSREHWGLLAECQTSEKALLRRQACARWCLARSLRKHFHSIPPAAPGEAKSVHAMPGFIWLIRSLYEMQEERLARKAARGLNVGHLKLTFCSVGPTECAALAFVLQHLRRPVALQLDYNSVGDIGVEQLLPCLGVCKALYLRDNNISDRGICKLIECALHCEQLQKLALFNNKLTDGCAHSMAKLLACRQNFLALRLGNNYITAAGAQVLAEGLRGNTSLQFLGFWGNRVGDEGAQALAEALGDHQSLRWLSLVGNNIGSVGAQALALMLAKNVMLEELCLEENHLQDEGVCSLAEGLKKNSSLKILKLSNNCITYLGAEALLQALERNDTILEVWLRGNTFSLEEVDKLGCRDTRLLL

Genome polyprotein = Genome polyprotein (dengue virus type 2, UniProt P29990); test: flavivirus cap methylation enzyme inhibition – biochemical, confirmation dose response, primary screen (AID 588689); format: functional
Chain of Genome polyprotein (P29990 2492-3391 limits assumed): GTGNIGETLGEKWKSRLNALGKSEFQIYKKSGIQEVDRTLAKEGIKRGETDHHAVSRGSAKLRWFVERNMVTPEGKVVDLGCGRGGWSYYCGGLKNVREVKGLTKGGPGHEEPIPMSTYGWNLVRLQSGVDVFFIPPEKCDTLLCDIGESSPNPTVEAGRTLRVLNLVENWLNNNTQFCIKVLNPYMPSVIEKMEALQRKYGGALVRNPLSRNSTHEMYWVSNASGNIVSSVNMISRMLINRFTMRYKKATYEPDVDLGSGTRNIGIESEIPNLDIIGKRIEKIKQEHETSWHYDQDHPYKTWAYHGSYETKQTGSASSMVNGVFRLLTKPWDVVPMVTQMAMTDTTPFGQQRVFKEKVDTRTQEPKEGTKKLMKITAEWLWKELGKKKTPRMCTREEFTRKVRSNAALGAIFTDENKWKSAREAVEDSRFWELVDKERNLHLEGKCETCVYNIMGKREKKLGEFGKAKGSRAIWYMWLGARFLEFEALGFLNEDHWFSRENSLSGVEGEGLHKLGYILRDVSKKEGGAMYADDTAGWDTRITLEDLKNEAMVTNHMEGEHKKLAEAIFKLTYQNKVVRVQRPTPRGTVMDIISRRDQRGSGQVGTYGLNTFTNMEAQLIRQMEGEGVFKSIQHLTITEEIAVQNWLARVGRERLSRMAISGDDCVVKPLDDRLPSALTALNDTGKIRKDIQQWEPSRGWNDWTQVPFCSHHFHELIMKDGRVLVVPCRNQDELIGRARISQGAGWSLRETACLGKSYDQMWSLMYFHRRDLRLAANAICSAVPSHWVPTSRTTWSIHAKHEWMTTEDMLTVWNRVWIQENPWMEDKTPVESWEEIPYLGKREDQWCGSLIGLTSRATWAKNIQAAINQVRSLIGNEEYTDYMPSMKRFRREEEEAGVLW

[13] = biological target: Lysine-specific demethylase 4C (Homo sapiens, UniProt Q9H3R0); test: inhibition of JMJD2C H3K9me3 demethylation – biochemical, DELFIA europium, cherry-picked samples, dose response (AID 488835); format: functional
Chain of Lysine-specific demethylase 4C (Q9H3R0 whole entry): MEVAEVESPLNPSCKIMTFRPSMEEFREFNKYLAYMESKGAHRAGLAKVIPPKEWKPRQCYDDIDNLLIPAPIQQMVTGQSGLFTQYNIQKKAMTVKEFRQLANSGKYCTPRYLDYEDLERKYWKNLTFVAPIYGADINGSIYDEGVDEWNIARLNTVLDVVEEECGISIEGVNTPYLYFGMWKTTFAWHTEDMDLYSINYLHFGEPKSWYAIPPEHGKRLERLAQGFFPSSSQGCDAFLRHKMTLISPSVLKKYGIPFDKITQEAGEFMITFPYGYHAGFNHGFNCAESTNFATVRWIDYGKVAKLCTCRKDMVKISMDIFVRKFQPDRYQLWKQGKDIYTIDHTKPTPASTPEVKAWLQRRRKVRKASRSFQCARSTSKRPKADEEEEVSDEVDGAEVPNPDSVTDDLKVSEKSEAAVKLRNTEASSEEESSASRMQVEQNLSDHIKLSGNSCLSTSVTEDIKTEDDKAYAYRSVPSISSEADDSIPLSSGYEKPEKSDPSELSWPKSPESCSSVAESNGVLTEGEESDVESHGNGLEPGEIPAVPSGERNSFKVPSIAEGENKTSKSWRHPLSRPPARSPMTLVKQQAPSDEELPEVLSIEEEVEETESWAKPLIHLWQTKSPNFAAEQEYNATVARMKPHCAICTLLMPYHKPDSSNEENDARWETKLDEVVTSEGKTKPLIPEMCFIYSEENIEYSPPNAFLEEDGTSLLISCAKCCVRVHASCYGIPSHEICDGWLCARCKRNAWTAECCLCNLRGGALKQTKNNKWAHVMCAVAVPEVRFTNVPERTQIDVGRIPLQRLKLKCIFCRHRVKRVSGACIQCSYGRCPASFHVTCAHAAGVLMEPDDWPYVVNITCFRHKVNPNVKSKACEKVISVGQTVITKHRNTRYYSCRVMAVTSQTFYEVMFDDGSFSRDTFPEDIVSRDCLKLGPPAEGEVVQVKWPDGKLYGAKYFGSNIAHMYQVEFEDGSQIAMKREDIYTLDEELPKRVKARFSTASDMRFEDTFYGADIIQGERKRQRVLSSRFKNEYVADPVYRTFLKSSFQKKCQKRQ

[14] = biological target: T2, Orexin/Hypocretin receptor type 1 (Homo sapiens, UniProt O43613); test: Homogeneous Time Resolved Fluorescence (HTRF)-based cell-based high throughput dose response assay for antagonists of the orexin 1 receptor (OX1R; HCRTR1). [Related pubchem assays (depositor defined):AID434989, AID435008, AID463079, AID485270, AID492963, AID492964, AID492965, AID493232, AID504717, AID504718]; format: functional
T2 sequence (O43613 whole entry): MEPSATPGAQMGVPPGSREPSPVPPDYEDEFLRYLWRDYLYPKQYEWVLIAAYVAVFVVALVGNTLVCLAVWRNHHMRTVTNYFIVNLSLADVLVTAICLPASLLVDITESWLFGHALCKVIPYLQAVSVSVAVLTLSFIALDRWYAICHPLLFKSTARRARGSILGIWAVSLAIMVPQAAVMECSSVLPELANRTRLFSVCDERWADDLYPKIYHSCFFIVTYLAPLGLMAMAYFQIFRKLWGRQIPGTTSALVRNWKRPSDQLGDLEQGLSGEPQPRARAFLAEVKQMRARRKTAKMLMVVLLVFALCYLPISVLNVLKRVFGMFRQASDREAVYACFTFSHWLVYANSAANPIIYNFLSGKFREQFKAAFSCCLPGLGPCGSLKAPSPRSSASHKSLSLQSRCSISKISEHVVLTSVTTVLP

[15] = (§1) Counterscreen for antagonists of the orexin 1 receptor (OX1R; HCRTR1): Fluorescence-based cell-based high throughput dose response assay to identify antagonists of the parental CHO cell line. [Related pubchem assays (depositor defined):AID434989, AID435008, AID463079, AID485270, AID492963, AID492964, AID492965, AID493232, AID504699, AID504701]; format: functional
CHO-K1 = test: as §1, with “Homogeneous time resolved fluorescence (HTRF)-based” for “Fluorescence-based”, “cell-based” for “cell-based high throughput”, “CHO-K1” for “CHO”; format: functional; conditions: Cricetulus griseus;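 also: potency for inhibition of ATP-stimulated IP1 production as antagonists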
[16] = biological target: T2, Orexin/Hypocretin receptor type 1; test: Fluorescence-based cell-based high throughput dose response assay for antagonists of the orexin 1 receptor (OX1R; HCRTR1). [Related pubchem assays (depositor defined):AID434989, AID435008, AID463079, AID485270, AID492963, AID492964, AID492965, AID493232, AID504717, AID504718]; format: functional
[17] = Luminescence Cell-Based Dose HTS Response to Identify Inhibitors of 5'UTR Stem-Loop Driven Prion Protein mRNA Translation in H4-C Neuroglioblastoma Cells. [Related pubchem assays (depositor defined):AID1814, AID1827]; format: functional
[18] = luciferase reporter signal suppression in cells – H4 neuroglioma cells, luminescence, dose response (AID 1990); format: functional, cell-based
[19] = Luminescence Cell-Based Dose Retest to Confirm Activators of 5'UTR Stem-Loop Driven Alpha-Synuclein mRNA Translation in H4 Neuroglioblastoma Cells. [Related pubchem assays (depositor defined):AID1813, AID1829]; format: functional
[20] = Luminescence Cell-Based Dose Response HTS to Identify Inhibitors of 5'UTR Stem-Loop Driven Prion Protein mRNA Translation in H4 Neuroglioblastoma Cells. [Related pubchem assays: 1827 (Project Summary), 1813 (Primary HTS)]; format: functional
BJ [21] = test: cells; format: functional, cell-based; conditions: Homo sapiens
[22] = Luminescence Cell-Based Dose Response HTS to Identify Activators of Luciferase Translation or Activity in H4-C Neuroglioblastoma Cells. [Related pubchem assays: 1829 (Project Summary), 1814 (Primary HTS)]; format: functional
[23] = DRD fibroblast viability loss – cell-based, non-viral oncogenic, luminescence, dose response (AID 1934); format: functional; conditions: Homo sapiens
[24] = Luminescence Cell-Based Dose Confirmation HTS to Identify Inhibitors of 5'UTR Stem-Loop Driven Alpha-Synuclein mRNA Translation in H4 Neuroglioblastoma Cells. [Related pubchem assays: 1827 (Project Summary), 1813 (Primary HTS)]; format: functional
[25] = Luminescence Cell-Based Dose Response HTS to Identify Inhibitors of Luciferase Translation or Activity in H4-C Neuroglioblastoma Cells. [Related pubchem assays: 1813 (Primary HTS), 1827 (Project Summary)]; format: functional
BJ [26] = test: BJ-TERT-LT-ST fibroblast viability loss – cell-based, RAS-independent, luminescence, dose response (AID 1935); format: functional; conditions: Homo sapiens;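 also: BJ fibroblasts immortalized with TERT plus LT and ST oncogenes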
BJ [27] = test: BJ-TERT fibroblast viability loss – cell-based, RAS-independent, luminescence, dose response (AID 1933); format: functional; conditions: Homo sapiens
[28] = Luminescence Cell-Based Dose Response HTS to Identify Activators of 5'UTR Stem-Loop Driven Prion Protein mRNA Translation in H4-C Neuroglioblastoma Cells. [Related pubchem assays: 1829 (Project Summary), 1814 (Primary HTS)]; format: functional
[29] = alpha-synuclein stem-loop luciferase translation blockers – H4 neuroglioma cells, luminescence, confirmation (AID 1988); format: functional, cell-based
[30] = THP-1 cell cytotoxicity, dose response, cytotoxicity control for non-replicating M. tuberculosis project (AID 489025); format: functional
[31] = HepG2 cell cytotoxicity, dose response, cytotoxicity control for non-replicating M. tuberculosis project (AID 489018); format: functional; conditions: Mycobacterium tuberculosis
[32] = test system: Streptococcus sp. 'group A'; test: Streptococcus pyogenes SK(-)GAS viability under kanamycin – luminescence, BacTiterGlo, confirmation, counter-screen for streptokinase expression inhibitor project, dose response (AID 1900); format: functional, organism-based
cells = format: functional
Streptococcus = test: GAS UMAA2166 growth inhibition – luminescence, BacTiterGlo, counter-screen for streptokinase expression inhibitor project, dose response (AID 1915); format: functional, organism-based;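 also: potency for reduction of bacterial viability or growth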
[33] = Vero E6 cell cytotoxicity, dose response, cytotoxicity control for non-replicating M. tuberculosis project, secondary assay (AID 492998); format: functional, VeroE6; conditions: Vero C1008

T1 sequence (P98170 whole entry): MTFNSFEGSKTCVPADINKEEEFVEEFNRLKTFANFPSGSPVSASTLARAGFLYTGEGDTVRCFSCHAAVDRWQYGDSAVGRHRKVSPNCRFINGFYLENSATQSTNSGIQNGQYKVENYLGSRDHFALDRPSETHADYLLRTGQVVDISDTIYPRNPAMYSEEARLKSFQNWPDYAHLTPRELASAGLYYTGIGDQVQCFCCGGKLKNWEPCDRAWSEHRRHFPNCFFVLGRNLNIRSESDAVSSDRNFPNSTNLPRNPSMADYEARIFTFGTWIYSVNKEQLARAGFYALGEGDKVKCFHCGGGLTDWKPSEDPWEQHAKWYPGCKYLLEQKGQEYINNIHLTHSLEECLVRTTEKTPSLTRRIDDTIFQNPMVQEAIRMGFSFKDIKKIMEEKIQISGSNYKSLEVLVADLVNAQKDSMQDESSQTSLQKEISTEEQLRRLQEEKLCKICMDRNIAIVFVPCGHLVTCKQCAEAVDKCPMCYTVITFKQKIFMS

With `CC(C)(Nc1ccccc1)C(=O)c1ccccc1` the IC50 [1] was > 100 µM (not active) and the IC50 [2] was > 100 µM (inactive).
In the case of `C=C(C(=O)c1ccccc1)C(C(=C)C(=O)c1ccccc1)c1ccc(OC)cc1`, the CC50 (Vero [3]) is reported as 11.2 µM (active), the IC50 (HEK293 [4]) is reported as 5.78 µM (active) and the EC50 (HEK293 [5]) is reported as > 20 µM (inactive). The IC50 (Vero [6]) was > 25 µM (active), the EC50 [7] was 10.4 µM (active) and the IC50 (HEK293 [8]) was > 20 µM (inactive). For the same molecule, the EC50 [9] was 2.88 µM (active), the IC50 (HEK293 [10]) was 5.4 µM (inactive) and the AC50 (Paired box protein Pax-8) was 2.66 µM (active). The IC50 (HEK293 [11]) was > 20 µM (inactive), the AC50 (INS1) was 6.58 µM (active) and the EC50 [12] was > 20 µM (inactive).
With `Cc1cc(C)cc(OCCOc2cccc(C=C3C(=O)NC(=O)NC3=O)c2)c1` the IC50 (Genome polyprotein) was 46.9 µM (active) and the AC50 [13] was > 60 µM (inactive).
In the case of `COc1cc2ccccc2cc1C(=O)Nc1ccc(N2CCOCC2)cc1`, the IC50 [14] is reported as 8.59 µM (active), the IC50 [15] is reported as > 49.8 µM (inactive) and the IC50 (CHO-K1) is reported as > 66.3 µM (inactive). For the same molecule, the IC50 [16] was > 49.8 µM (inactive).
In the case of `Cc1ccc(-c2cc(C(=O)N/N=C/c3c(C)nn(-c4ccccc4)c3C)[nH]n2)cc1`, the EC50 [17] is reported as 5.9 µM (active), the EC50 [18] is reported as 7.44 µM (active) and the EC50 [19] is reported as 2.09 µM (inconclusive). For the same molecule, the EC50 [20] was 14 µM (active), the EC50 (BJ [21]) was 2.04 µM (inconclusive) and the EC50 [22] was 1.75 µM (inconclusive). The EC50 [23] was 0.576 µM (active), the EC50 [24] was 10.1 µM (active) and the EC50 [25] was 1.01 µM (active). The EC50 (BJ [26]) was 0.624 µM (inconclusive), the EC50 (BJ [27]) was 0.603 µM (active) and the EC50 [28] was 1.28 µM (inconclusive). For the same molecule, the EC50 [29] was 0.327 µM (active).
With `O=C(NNC(=S)NC(=O)c1cn(-c2ccccc2)nc1-c1ccccc1)c1ccncc1` the CC50 (Vero [3]) was 24.3 µM (active), the CC50 [30] was 13.6 µM (active) and the CC50 [31] was > 20 µM (active). For the same molecule, the IC50 (Vero [6]) was 24.4 µM (active), the EC50 [32] was 0.239 µM (active) and the IC50 (cells) was 2.75 µM (active). For the same molecule, the EC50 (Streptococcus) was 0.94 µM (active) and the CC50 [33] was 10 µM (active).
